# Experimental data published in patent US11332438B2, “Creatine prodrugs, compositions and methods of use thereof” (Ultragenyx Pharmaceutical Inc., priority 2017, dated 2022).
# “Also recorded” adds a separate entry of the source.
# Columns and labels:
# [1] = Prodrug cleavage in human brain homogenates (HBH): d3-Cr release and d3-Crn cyclization; type: in vitro ADME; conditions: for Prodrug Cleavage Human BH d3-Crn release / Prodrug Cleavage Human BH net d3-Cr release: 200 μM prodrug, 3 h, % of nominal input; for Prodrug Cleavage Human BH net d3-Cr release: negative control subtracted
# Protocol: (§1) For assessment of the ability of prodrugs to release creatine, and to release creatine preferentially to unwanted cyclization to creatinine, d3-labeled (deuterium labeled methyl group) prodrugs are incubated with brain homogenates (e.g., mouse, human) specially prepared to preserve FAAH activity or with rFAAH for direct cleavage study. The use of d3-labelled prodrugs is essential in order to distinguish prodrug-derived creatine (d3-creatine) from high concentrations of endogenous (non-labeled) creatine. […] Prodrugs are tested at final concentrations of 20 μM and 200 μM. Approximately 3-4 mg of homogenate is used for each reaction. Co-factor (NADPH) is included at a final concentration of 1 mM. FAAH activity is confirmed by conversion of 7-amino-4-methyl Coumarin-Arachidonamide to 7-amino-4-methyl Coumarin by fluorescent assay. Negative controls include incubations without brain homogenate/rFAAH (but with NADPH) or 65° C. heat inactivated brain homogenate/rFAAH to assess non-enzymatic prodrug cleavage under the conditions of the assay and FAAH inhibitor […] at the concentration of 1 μM. Prodrug incubations are prepared by addition of 8 μL of prodrug stock solution (500 or 5000 μM in DMSO or DMSO/methanol) to assay buffered, followed by addition of brain homogenate/rFAAH. […] The samples are centrifuged at 15890×g for 10 minutes at 4° C., followed by transfer of the supernatants for storage at −20° C. pending LC-MS/MS analysis. Sample supernatants are analyzed by LC-MS/MS for determination of d3-prodrug, d3-creatine and d3-creatinine levels.
# (§2) Deuterated creatine prodrugs were tested in 3 different in vitro assays to assess d3-creatine (d3-Cr) release and cyclization to form d3-creatinine (d3-Crn). These assays were 1) direct cleavage with recombinant human FAAH enzyme (rFAAH), 2) cleavage in mouse brain homogenates (MBH), and 3) human brain homogenates (HBH).
# (§3) Creatine prodrug cleavage efficiency was determined by percentage of net d3-Cr release in μM (positive reaction subtracted from negative control of no brain homogenate/rFAAH or inactivated brain homogenate/rFAAH) over nominal input concentration of 200 μM prodrug at 3 h. Propensity for creatinine cyclization was determined by percentage of d3-Crn generated in μM in positive reaction over nominal input concentration of 200 μM prodrug at 3 h.
# [2] = Chemical stability in simulated gastric fluid (SGF) without pepsin; type: physicochemical; conditions: Table 2A, 50 μM prodrug
# In short: (§4)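 Incubations used 50 μM compound at 37 °C in phosphate buffered saline, fasted simulated intestinal fluid without pancreatin, or fasted simulated gastric fluid without pepsin.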
# ARPE-19 cells = assay: Creatine prodrug uptake and d3-creatine release in ARPE-19 cells (Table 4A); type: cell-based, human; conditions: 50 μM, 6 h, cytosol fraction, corrected for total protein
# Protocol: At the end of the incubation, supernatant will be collected from each well to assess prodrug recovery. Cells are then washed 3× with PBS. Plates, prodrugs in supernatant, prodrugs in serum-free medium are stored at −80° C. until harvest (within 5 days). On the day of extraction, 130 uL of lysis buffer (10 mM Tris pH 7.4) with EDTA-free protease inhibitors is added to each well and cells are removed using a cell scraper. Lysates are further homogenized using a handheld pestle and then centrifuged at 16,000 g, […], for 10 minutes to collect cytosol fraction. Pellets will be stored at −80° C. until further analysis. A 4× volume of stop solution (80% ACN/20% water) will be added to the cytosol fraction, supernatant and medium. Samples will be centrifuged at 15,890 g (13,000 rpm) at 4° C. for 10 mins. Supernatant will be collected and stored at −80° C. within 5 days prior to LC-MS/MS analysis. Dosing solutions for each prodrug (10 μM) will be assayed to verify concentration. Cells alone with vehicle will serve as controls to assess background signal for LC-MS/MS. Two independent runs of experiment will be conducted.
# Nine fatty acid amide creatine prodrugs were tested in human ARPE-19 cells to assess prodrug uptake and d3-Cr release inside the cells. 50 μM of prodrug was incubated in culture medium with the cells and the cells were harvested at 6 h. Quantitation of prodrugs, d3-Cr (d3-creatine) and d3-Cm (d3-creatinine) in the cytosol fraction was corrected for total protein concentration.
# [3] = Chemical stability in phosphate buffered saline (PBS); type: physicochemical; conditions: Table 2A, 50 μM prodrug
# In short: as §4
# [4] = biological target: T1, recombinant human FAAH enzyme (rFAAH) (Homo sapiens, UniProt O00519); assay: Direct prodrug cleavage with recombinant human FAAH enzyme (rFAAH): d3-Cr release and d3-Crn cyclization; type: biochemical; conditions: 200 μM prodrug, 3 h, % of nominal input; for Prodrug Cleavage rFAAH net d3-Cr release: negative control subtracted
# T1 sequence (O00519 1-579): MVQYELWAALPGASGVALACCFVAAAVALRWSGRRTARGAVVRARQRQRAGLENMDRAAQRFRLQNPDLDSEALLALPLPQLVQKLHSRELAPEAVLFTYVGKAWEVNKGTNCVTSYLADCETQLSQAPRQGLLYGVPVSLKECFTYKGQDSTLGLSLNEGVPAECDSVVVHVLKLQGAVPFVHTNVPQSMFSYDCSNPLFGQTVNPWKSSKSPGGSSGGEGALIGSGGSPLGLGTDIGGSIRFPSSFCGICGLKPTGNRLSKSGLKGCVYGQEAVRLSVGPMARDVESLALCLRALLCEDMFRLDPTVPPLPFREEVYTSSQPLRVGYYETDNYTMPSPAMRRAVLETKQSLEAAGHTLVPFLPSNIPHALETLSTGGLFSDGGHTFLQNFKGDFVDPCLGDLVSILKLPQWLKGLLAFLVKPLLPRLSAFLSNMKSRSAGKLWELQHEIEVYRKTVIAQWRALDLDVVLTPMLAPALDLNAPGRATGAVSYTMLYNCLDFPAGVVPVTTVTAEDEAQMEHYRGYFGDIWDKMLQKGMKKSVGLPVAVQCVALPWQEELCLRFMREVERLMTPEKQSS
# Protocol: as §1, §2, §3
# [5] = Chemical stability in simulated intestinal fluid (SIF) without pancreatin; type: physicochemical; conditions: Table 2A, 50 μM prodrug
# Protocol: Chemical stability of creatine prodrugs in phosphate buffered saline (PBS), simulated intestinal fluid (SIF) without pancreatin, simulated gastric fluid (SGF) without pepsin were determined by LC-UV, LC-CAD, LC-UV-CAD or LC-MS/MS as appropriate. Creatine prodrugs of the present disclosure (50 μM) were incubated at 37° C. according to described protocols and prodrug levels were compared between t=0, t=15, t=60, and t=120 mins by peak area ratio to determine the percentage remained at t=120 mins (2 h).
# Protocol for PBS, SIF and SGF stability for screening:
# Prodrugs (50 μM) were incubated in PBS, FaSSIF (Biorelevant) or FaSSGF (Biorelevant) at 37° C.
# [6] = In vivo IV dosing in CrT KO mice: prodrug, d3-Cr and d3-Crn in brain (Table 5); conditions: brain, CrT KO mice
# In short: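 CrT KO mice received prodrugs by IV injection at 10, 15 or 25 mg/kg. Brains were collected, flash frozen and homogenized in 100 mM KPI buffer with anti-proteases. Prodrug, d3-Cr and d3-Crn were quantified by LC-MS/MS and expressed as brain concentration (macrocycles) or AUC over time (linear prodrugs).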
# [7] = d3-Creatine and d3-creatinine concentration in CrT KO mice brain after IV bolus dose (FIGS. 3 and 4, Table 6); type: in vivo; conditions: CrT KO mice brain, 8 h after IV bolus dose
# Protocol: The brain concentrations of d3-creatine and d3-creatinine was measured in CrT KO mice following 10 mg/kg single dose IV bolus dose of compound 14 and 15 (FIGS. 3 and 4). As shown by FIG. 3, brain d3-creatine concentration was higher following administration of compound 15 compared to compound 14. […] Without bound to any theory, the macrocyclic compound 15 prodrug reduces d3-creatine cyclization to d3-creatinine when compared to linear compound 14 prodrug.
# The concentration of d3-creatine in CrT KO mice brain were also measured for other compounds disclosed in the present application as shown in Table 6. The concentrations of d3-creatine, d3-creatinine and creatine prodrugs are measured by LC-MS/MS. The brain sample is homogenized with 4× (weight to volume) of KPI 100 mM buffer containing anti-proteases and anti-phosphatases (if needed). 50 μl of brain homogenate is then de-proteinized using 4× volume/volume of a solution containing 80% acetonitrile and 20% water with bucetin, d5-Cr (internal standard). The plate is then spun at 4000 rpm, 10 minutes, 4° C. and samples are transferred to a new plate for bioanalysis. Each analyte in each sample was quantitated against a curve in matching biomatrix using an authentic standard.
# [8] = in vitro cleavage assays (Table 3A)
Compound,Prodrug Cleavage Human BH d3-Crn release [1],Prodrug Cleavage Human BH net d3-Cr release [1],"Chemical Stability SGF, no enzyme % T0 at 2 hours at 37 °C. [2]","d3-Cr, Cellular Uptake (ARPE-19 cells)","d3-Crn, Cellular Uptake (ARPE-19 cells)","prodrug, Cellular Uptake (ARPE-19 cells)",Chemical Stability PBS % T0 at 2 hours at 37 °C. [3],Prodrug Cleavage rFAAH d3-Crn release [4],Prodrug Cleavage rFAAH net d3-Cr release [4],"Chemical Stability SIF, no enzyme % T0 at 2 hours at 37 °C. [5]","d3-Cr release in vitro (in words) [1, 8]","d3-Crn (creatinine) cyclization in vitro (in words) [1, 8]",d3-Cr/d3-Crn release ratio in vivo (in words) [6],Concentration of d3-Cr in CrT KO mice brain [7]
"[2H]C([2H])([2H])N(CC(=O)[O-])C(=N)NC(=O)CCCCCCCCCCCCC.[Li+] [Compound 7, Lithium 2-(1-trideuteriomethyl-3-tetradecanoylguanidino) Acetate]",0.8%,50.8%,63%,18.6 nmol/mg protien,<0.2 nmol/mg protien,13.1 nmol/mg protien,90%,1.7%,146.0%,77%,–,–,–,–
Cl.[2H]C([2H])([2H])N(CC(=O)OC(C)C)C(=N)NC(=O)CCCCCCCCCCCC [Compound 10-HCl],251.5%,4.3%,83%,–,–,–,11%,217.0%,1.2%,46%,small amount of d3-Cr,predominantly cyclized into creatinine; also recorded: predominantly creatinine cyclization,favorable d3-Cr/d3-Crn ratio,–
"[2H]C([2H])([2H])N1CC(=O)OC(CCCCC)CCCCCC(=O)NC1=N (stereo not drawn) [Compound FF, 5-Imino-4-trideuteriomethyl-13-pentyl-1-oxa-4,6-diazacyclotridecane-2,7-dione]",–,–,–,–,–,–,–,–,–,–,–,–,–,BLOQ
